We go through 14 compounds from patent publication US20260224716A1, “PTH ANALOGS FOR THE TREATMENT OF HYPOPARATHYROIDISM” (priority 2020, published 2026).

Data set [1] is described as follows: Rate of model dipeptide cleavage from hexapeptide in PBS (HPLC, LC-MS). It counts as physicochemical. The conditions noted are these: for half-life at 1 mg/ml: buffer; for t1/2: cleavage of dipeptide A-B from model hexapeptide in PBS, 37° C., unit not given or result in words. On the procedure:
The solution was incubated at 37° C.
The flow rate was 1 ml/min.

A short description of data set [2]: Cleavage half-life / conversion of PTH prodrugs in PBS pH 7.4, 37° C. by LC-MS. The conditions noted are these: PBS buffer; dipeptide cleavage from PTH prodrug, PBS pH 7.4, 37° C.; read-out: Half life (converted). It counts as physicochemical. As to the method: The resulting solution was incubated at 37° C. Aliquots were taken at designed time points and analyzed by LC-MS. […] Flow rate of 1 mL/min and a gradient of 10%-80% acetonitrile in water, with 0.1% trifluoroacetic acid over 10 min. […] The concentration of prodrug and drug were determined by their relative peak areas. The […] dissociation rate constant of the prodrug was determined by plotting the logarithm in the concentration of the prodrug at various time points.

For data set [3], the target named is T1, PTH1 receptor (Homo sapiens, UniProt Q03431).
T1 construct: expressed in transfected cells; host or cells: HEK293
T1 sequence (Q03431 27-593): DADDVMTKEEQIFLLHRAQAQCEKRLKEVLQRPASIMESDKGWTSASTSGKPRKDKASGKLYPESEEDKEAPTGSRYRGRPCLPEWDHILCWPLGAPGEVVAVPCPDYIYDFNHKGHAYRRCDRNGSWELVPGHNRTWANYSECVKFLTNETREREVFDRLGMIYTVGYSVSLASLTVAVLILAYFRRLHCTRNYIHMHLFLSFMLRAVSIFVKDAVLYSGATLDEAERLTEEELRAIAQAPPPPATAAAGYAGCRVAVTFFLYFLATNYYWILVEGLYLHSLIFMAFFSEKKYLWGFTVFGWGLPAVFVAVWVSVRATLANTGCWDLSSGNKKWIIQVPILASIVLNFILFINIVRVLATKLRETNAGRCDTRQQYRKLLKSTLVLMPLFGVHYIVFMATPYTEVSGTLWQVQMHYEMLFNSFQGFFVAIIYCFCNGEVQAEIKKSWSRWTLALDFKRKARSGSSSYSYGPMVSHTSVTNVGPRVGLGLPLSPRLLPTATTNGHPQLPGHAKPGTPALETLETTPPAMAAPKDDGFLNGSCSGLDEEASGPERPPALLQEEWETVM
Briefly: Luciferase-based reporter gene assay for cAMP detection (HEK293 cells). Type of data set: cell-based. The settings on record: for potency at the PTH receptor: luciferase reporter of cAMP production; for EC50: HEK293 cells, PTH1 receptor, cAMP-responsive luciferase, 5 hours, read-out: Potency EC50. On the procedure:
At the end of the incubation, 50 μL of Steady-Lite Plus (PerkinElmer, Waltham, MA) were added to each well. The plate was shaken briefly, incubated four minutes and light output was measured on an EnSpire Alpha Multi-mode Plate Reader (PerkinElmer, Waltham, MA).
Background: Reporter assays use an easily measured gene product as a stand-in for the process of interest.

Where a SMILES comes first, the peptide text is derived from it. [ ]: non-standard residue; d: D form. The star is where a group is joined. Isobutyryl(2-OH) = CC(C)(O)C(=O)*; Deg = CCC(N)(CC)C(=O)O; Aib = CC(C)(N)C(=O)O

The compound `C[C@@H](O)[C@H](NC(=O)CNC(=O)[C@H](CCCNC(=N)N)NC(=O)[C@H](CO)NC(=O)[C@H](Cc1c[nH]cn1)NC(=O)[C@@H]1CCCN1C(=O)C(C)(C)N)C(=O)N[C@@H](Cc1ccccc1)C(N)=O` [compound 14] (H-[Aib]PHSRGTF-NH2) gave a half-life at 1 mg/ml in data set [1] of 32 h.
With `CC[C@H](C)[C@H](NC(=O)[C@H](CCC(=O)O)NC(=O)[C@H](CO)NC(=O)[C@@H](NC(=O)[C@H](CO)NC(=O)CN(C)C(=O)[C@H](N)CCCCNC(=O)CC[C@H](NC(=O)CCCCCCCCCCCCCCCCC(=O)O)C(=O)O)C(C)C)C(=O)N[C@@H](CCC(N)=O)C(=O)N[C@@H](CC(C)C)C(=O)N[C@@H](CCSC)C(=O)N[C@@H](Cc1c[nH]cn1)C(=O)N[C@@H](CC(N)=O)C(=O)N[C@@H](CC(C)C)C(=O)NCC(=O)N[C@@H](CCCCN)C(=O)N[C@@H](Cc1c[nH]cn1)C(=O)N[C@@H](CC(C)C)C(=O)N[C@@H](CC(N)=O)C(=O)N[C@@H](CO)C(=O)N[C@@H](CCSC)C(=O)N[C@@H](CCC(=O)O)C(=O)N[C@@H](CCCNC(=N)N)C(=O)N[C@H](C(=O)N[C@@H](CCC(=O)O)C(=O)N[C@@H](Cc1c[nH]c2ccccc12)C(=O)N[C@@H](CC(C)C)C(=O)N[C@@H](CCCNC(=N)N)C(=O)N[C@@H](CCCCN)C(=O)N[C@@H](CCCCN)C(=O)N[C@@H](CC(C)C)C(=O)N[C@@H](CCC(N)=O)C(=O)N[C@@H](CC(=O)O)C(=O)N[C@H](C(=O)N[C@@H](Cc1c[nH]cn1)C(=O)N[C@@H](CC(N)=O)C(=O)N[C@@H](Cc1ccccc1)C(=O)N[C@@H](CCCCNC(=O)CC[C@H](NC(=O)CCCCCCCCCCCCCCCCC(=O)O)C(=O)O)C(N)=O)C(C)C)C(C)C` [SEQ ID NO: 58], in data set [2], the half-life is 73 h. For the same compound, the “potency at the PTH receptor” value in data set [3] (FIGS. 3A, 3B) is on record as “low potency”.
Take `CCC(N)(CC)C(=O)N1CCC[C@H]1C(=O)N[C@@H](Cc1c[nH]cn1)C(=O)N[C@@H](CO)C(=O)N[C@@H](CCCNC(=N)N)C(=O)NCC(=O)N[C@H](C(=O)N[C@@H](Cc1ccccc1)C(N)=O)[C@@H](C)O` [compound 20] (H-[Deg]PHSRGTF-NH2): in data set [1], the half-life at 1 mg/ml was 46 h.
`C[C@@H](O)[C@H](NC(=O)CNC(=O)[C@H](CCCNC(=N)N)NC(=O)[C@H](CO)NC(=O)[C@H](Cc1c[nH]cn1)NC(=O)[C@@H]1CCCN1C(=O)C(C)(C)O)C(=O)N[C@@H](Cc1ccccc1)C(N)=O` [compound 21] ({Isobutyryl(2-OH)}-PHSRGTF-NH2) showed a half-life at 1 mg/ml in data set [1] of 61 h.
Still for that read-out and setting: under `C[C@H](NC(=O)[C@@H]1CCCN1C(=O)C(C)(C)N)C(=O)N[C@@H](CO)C(=O)N[C@@H](CCCNC(=N)N)C(=O)NCC(=O)N[C@H](C(=O)N[C@@H](Cc1ccccc1)C(N)=O)[C@@H](C)O` [compound 22] (H-[Aib]PASRGTF-NH2) stands 58 h.
On to `CC[C@H](C)[C@H](NC(=O)[C@H](CCC(=O)O)NC(=O)[C@H](CO)NC(=O)[C@@H](NC(=O)[C@H](CO)NC(=O)CN(C)C(=O)[C@H](N)CCCCNC(=O)CC[C@H](NC(=O)CCCCCCCCCCCCCCCCC(=O)O)C(=O)O)C(C)C)C(=O)N[C@@H](CCC(N)=O)C(=O)N[C@@H](CC(C)C)C(=O)N[C@@H](CCSC)C(=O)N[C@@H](Cc1c[nH]cn1)C(=O)N[C@@H](CC(N)=O)C(=O)N[C@@H](CC(C)C)C(=O)NCC(=O)N[C@@H](CCCCN)C(=O)N[C@@H](Cc1c[nH]cn1)C(=O)N[C@@H](CC(C)C)C(=O)N[C@@H](CC(N)=O)C(=O)N[C@@H](CO)C(=O)N[C@@H](CCSC)C(=O)N[C@@H](CCC(=O)O)C(=O)N[C@@H](CCCNC(=N)N)C(=O)N[C@H](C(=O)N[C@@H](CCC(=O)O)C(=O)N[C@@H](Cc1c[nH]c2ccccc12)C(=O)N[C@@H](CC(C)C)C(=O)N[C@@H](CCCNC(=N)N)C(=O)N[C@@H](CCCCN)C(=O)N[C@@H](CCCCN)C(=O)N[C@@H](CC(C)C)C(=O)N[C@@H](CCC(N)=O)C(=O)N[C@@H](CC(=O)O)C(=O)N[C@H](C(=O)N[C@@H](Cc1c[nH]cn1)C(=O)N[C@@H](CCC(N)=O)C(=O)N[C@@H](Cc1ccccc1)C(=O)O)C(C)C)C(C)C` [SEQ ID NO: 61], for which the “potency at the PTH receptor” value in data set [3] (FIGS. 3A, 3B) is “decreases the potency”. Besides, in data set [3], the EC50 came out at 45.5 nM.
In turn, `C[C@@H](O)[C@H](NC(=O)CNC(=O)[C@H](CCCNC(=N)N)NC(=O)[C@H](CO)NC(=O)[C@@H](Cc1c[nH]cn1)NC(=O)[C@@H]1CCCN1C(=O)C(C)(C)N)C(=O)N[C@@H](Cc1ccccc1)C(N)=O` [compound 16] (H-[Aib]P[dH]SRGTF-NH2) had a half-life at 1 mg/ml in data set [1] of 16 h.
For `CC[C@H](C)[C@H](NC(=O)[C@H](CCC(=O)O)NC(=O)[C@H](CO)NC(=O)[C@@H](NC(=O)[C@@H](N)CO)C(C)C)C(=O)N[C@@H](CCC(N)=O)C(=O)N[C@@H](CC(C)C)C(=O)N[C@@H](CCSC)C(=O)N[C@@H](Cc1c[nH]cn1)C(=O)N[C@@H](CC(N)=O)C(=O)N[C@@H](CC(C)C)C(=O)NCC(=O)N[C@@H](CCCCN)C(=O)N[C@@H](Cc1c[nH]cn1)C(=O)N[C@@H](CC(C)C)C(=O)N[C@@H](CC(N)=O)C(=O)N[C@@H](CO)C(=O)N[C@@H](CCSC)C(=O)N[C@@H](CCC(=O)O)C(=O)N[C@@H](CCCNC(=N)N)C(=O)N[C@H](C(=O)N[C@@H](CCC(=O)O)C(=O)N[C@@H](Cc1c[nH]c2ccccc12)C(=O)N[C@@H](CC(C)C)C(=O)N[C@@H](CCCNC(=N)N)C(=O)N[C@@H](CCCCN)C(=O)N[C@@H](CCCCN)C(=O)N[C@@H](CC(C)C)C(=O)N[C@@H](CCC(N)=O)C(=O)N[C@@H](CC(=O)O)C(=O)N[C@H](C(=O)N[C@@H](Cc1c[nH]cn1)C(=O)N[C@@H](CC(N)=O)C(=O)N[C@@H](Cc1ccccc1)C(=O)N[C@@H](CCCCNC(=O)CC[C@H](NC(=O)CCCCCCCCCCCCCCCCC(=O)O)C(=O)O)C(N)=O)C(C)C)C(C)C` [SEQ ID NO: 56], the “potency at the PTH receptor” value in data set [3] (FIGS. 3A, 3B) is on record as “retains high potency”. Moreover, in data set [3], the EC50 worked out at 2.9 nM.
With “7 (SVSEIQLMHNLGKHLNSMERVEWLRKKLQDVH; listed as Homo sapiens) [compound 7]”, in data set [1], the t1/2 entry is given as “No cleavage”.
Regarding “11 (XXSVSEIQLMHNLGKHLNSMERVEWLRKKLQDVHNF; SITE 1 MISC_FEATURE - Xaa at position 1 is acylated dLys; SITE 2 MISC_FEATURE - Xaa at position 2 is N-methyl Gly; listed as Homo sapiens) [compound 11]”, the t1/2 result in data set [1] is listed as “No cleavage”.
For “12 (SVSEIQLMHNLGKHLNSMERVEWLRKKLQDVHNFX; VARIANT 35 MISC_FEATURE - Xaa at position 35 is an acylated Lys; SITE 35 MISC_FEATURE - C-terminal carboxyl group replaced with an amide; listed as Homo sapiens) [compound 12]”, the t1/2 entry in data set [1] is given as “No cleavage”.
As to “k(N-Me)GSVSEIQLMHNLGKHLNSMERVEWLRKKLQDVHK(γE-(miniPEG)2-γE-COC16H32CO2H)-OH [SEQ ID NO: 80]”, in data set [3] (FIG. 4), the “potency at the PTH receptor” value was “decreases the potency”.
In data set [1], `C[C@@H](O)[C@H](NC(=O)CNC(=O)[C@H](CCCNC(=N)N)NC(=O)[C@H](CO)NC(=O)[C@H](Cc1c[nH]cn1)NC(=O)[C@H]1CCCN1C(=O)C(C)(C)N)C(=O)N[C@@H](Cc1ccccc1)C(N)=O` [compound 15] (H-[Aib][dP]HSRGTF-NH2) had a half-life at 1 mg/ml of 20 h.
In the case of `CC[C@H](C)[C@H](NC(=O)[C@H](CCC(=O)O)NC(=O)[C@H](CO)NC(=O)[C@@H](NC(=O)[C@H](CO)NC(=O)CN(C)C(=O)[C@H](N)CCCCNC(=O)CC[C@H](NC(=O)CCCCCCCCCCCCCCCCC(=O)O)C(=O)O)C(C)C)C(=O)N[C@@H](CCC(N)=O)C(=O)N[C@@H](CC(C)C)C(=O)N[C@@H](CCSC)C(=O)N[C@@H](Cc1c[nH]cn1)C(=O)N[C@@H](CC(N)=O)C(=O)N[C@@H](CC(C)C)C(=O)NCC(=O)N[C@@H](CCCCN)C(=O)N[C@@H](Cc1c[nH]cn1)C(=O)N[C@@H](CC(C)C)C(=O)N[C@@H](CC(N)=O)C(=O)N[C@@H](CO)C(=O)N[C@@H](CCSC)C(=O)N[C@@H](CCC(=O)O)C(=O)N[C@@H](CCCNC(=N)N)C(=O)N[C@H](C(=O)N[C@@H](CCC(=O)O)C(=O)N[C@@H](Cc1c[nH]c2ccccc12)C(=O)N[C@@H](CC(C)C)C(=O)N[C@@H](CCCNC(=N)N)C(=O)N[C@@H](CCCCN)C(=O)N[C@@H](CCCCN)C(=O)N[C@@H](CC(C)C)C(=O)N[C@@H](CCC(N)=O)C(=O)N[C@@H](CC(=O)O)C(=O)N[C@H](C(=O)N[C@@H](Cc1c[nH]cn1)C(=O)N[C@@H](CC(N)=O)C(=O)N[C@@H](Cc1ccccc1)C(=O)O)C(C)C)C(C)C` [SEQ ID NO: 45], in data set [2], the half-life was 90 h. For the same compound, the “potency at the PTH receptor” value in data set [3] (FIGS. 3A, 3B) is “decreases the potency”. In addition, the EC50 in data set [3] amounted to 45.5 nM.

The half-life is how long it takes for the measured level to halve. The EC50 is the midpoint of the concentration-response curve.
